Data from paper PMC3447978, “High-Throughput 1,536-Well Fluorescence Polarization Assays for α1-Acid Glycoprotein and Human Serum Albumin Binding” (PLoS ONE, 2012).

Key:
[1] = biological target: HSA protein-coated beads (Homo sapiens, UniProt P02768); assay: HSA protein-coated bead assay with HPLC analysis; assay type: binding; settings: compound 50 µM
Protocol: (§1) This system features the proteins of interest covalently bound to the surface of silica beads through the use of proprietary attachment chemistry. The surface was designed to minimize interactions with drug molecules, thus preventing non-specific binding of test substances.
(§2) AGP or HSA protein-coated beads (Sovicell, Leipzig, Germany; distributed by ADMEcell, Emeryville, CA) were thawed at room temperature for two hours. Stock solutions of each compound were diluted to a final sample concentration of 20 µM or 50 µM. Samples (45 µL) were added to 405 µL of premixed solutions of buffer and AGP or HSA coated beads and mixed thoroughly to keep the beads suspended in solution to allow for the compounds to bind to the protein coated beads, [30]. After centrifuging, 100 µL of supernatant were transferred to a 96-well plate and analyzed on an Agilent 1100 HPLC coupled to a diode array detector.
(§3) After equilibrating the column with 50 mM ammonium acetate buffer/acetonitrile (99%/1%) at a flow rate of 500 µL/min for ∼2 minutes, compounds were detected by initiating a five minute gradient to 100% acetonitrile, held for 3 minutes, followed by a one minute gradient to 1% acetonitrile, where the composition was then maintained for the final three minutes, for a total run time of 12 minutes. The diode array detector channels were set to 230 nm, 260 nm, 300 nm, and 340 nm (bandwidth = 5 nm). Data were evaluated using the Sovicell-supplied Microsoft Excel (Redmond, WA) spreadsheets, [44].

[2] = biological target: T1, human serum albumin (HSA) (Homo sapiens, UniProt P02768); assay: HSA 96-well fluorescence polarization displacement assay (dansyl sarcosine probe, Sudlow Site II)
T1 sequence (P02768 25-609): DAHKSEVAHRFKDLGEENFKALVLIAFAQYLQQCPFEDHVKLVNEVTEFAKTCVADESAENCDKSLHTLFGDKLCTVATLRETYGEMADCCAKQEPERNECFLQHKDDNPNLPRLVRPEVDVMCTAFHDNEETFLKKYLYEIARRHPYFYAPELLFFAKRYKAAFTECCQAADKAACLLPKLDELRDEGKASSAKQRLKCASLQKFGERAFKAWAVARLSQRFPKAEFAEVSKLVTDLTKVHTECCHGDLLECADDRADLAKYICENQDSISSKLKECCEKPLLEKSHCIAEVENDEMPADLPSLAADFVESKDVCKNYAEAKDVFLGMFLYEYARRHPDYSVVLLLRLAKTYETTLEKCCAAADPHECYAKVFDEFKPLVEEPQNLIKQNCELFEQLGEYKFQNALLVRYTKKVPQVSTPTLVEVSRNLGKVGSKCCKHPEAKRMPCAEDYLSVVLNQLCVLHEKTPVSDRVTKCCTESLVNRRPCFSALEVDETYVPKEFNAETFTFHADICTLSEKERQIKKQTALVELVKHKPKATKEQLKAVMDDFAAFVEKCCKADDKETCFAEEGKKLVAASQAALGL

[3] = biological target: T2, α1-acid glycoprotein (AGP) (Homo sapiens, UniProt P02763); assay: in vitro; settings: human
T2 sequence (P02763 19-201): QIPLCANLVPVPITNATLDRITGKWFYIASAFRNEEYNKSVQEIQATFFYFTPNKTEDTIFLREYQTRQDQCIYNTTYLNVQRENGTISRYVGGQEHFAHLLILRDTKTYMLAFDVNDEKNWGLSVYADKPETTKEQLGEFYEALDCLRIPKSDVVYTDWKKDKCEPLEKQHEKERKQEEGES
Protocol: as §1, §2, §3

[4] = biological target: AGP protein-coated beads (Homo sapiens, UniProt P02763); assay: in vitro; settings: protein-coated bead Kd values
AGP protein-coated beads, sequence (P02763 19-201): as above
Protocol: as §1, §2, §3

[5] = biological target: T1, human serum albumin (HSA); assay: HSA 1,536-well fluorescence polarization displacement assay (dansyl sarcosine probe, Sudlow Site II); assay type: binding; set-up: Albumin solution from human serum (HSA, Sigma-Aldrich, St. Louis, MO); purchased Sigma-Aldrich; host or cells: human serum
Protocol: For 1,536-well format (Table 2), a 3 µL mixture of HSA and dansyl sarcosine (bound control) or 3 µL of dansyl sarcosine (unbound control) were dispensed into a 1,536-well assay plate using a BioRAPTR. The plate was centrifuged at 1,000 rpm for 15 seconds, covered and incubated for 10 minutes, and FP data were collected on a ViewLux using the optics described above.
FP was measured 15 min after compound addition. Percent inhibition was derived from the bound (i.e., protein-probe complex), or 0% neutral control, and the unbound (i.e., free probe), or 100% displaced control, respectively, by calculating their mean values, and normalizing the data using GraphPad Prism 4.

[6] = biological target: T2, α1-acid glycoprotein (AGP); assay: AGP LOPAC1280 1,536-well qHTS screen (FP)
[7] = biological target: T1, human serum albumin (HSA); assay: biochemical
[8] = biological target: T2, α1-acid glycoprotein (AGP); assay: biochemical
[9] = biological target: T1, human serum albumin (HSA); assay: in vitro
[10] = biological target: T2, α1-acid glycoprotein (AGP); assay: biochemical; remark: listed apart in the source
[11] = read-out: HSA 1,536-well IC50 (extrapolated)
[12] = IC50 in AGP LOPAC1280 screen, validation set members present in the LOPAC1280 collection
[13] = AGP 1,536-well Screen IC50, LOPAC1280 screen, top compound concentration 144 µM

HSA protein-coated beads, sequence (P02768 25-609): as the sequence (P02768 25-609) above

IC50 [7] [µM] | IC50 [8] [µM] | IC50 [6] [µM] | SMILES | IC50 [2] [µM] | Kd at 2 min, 50 µM [3] [µM] | also measured
 |  |  | CC(C)NCC(O)COc1cccc2ccccc12 (centres unmarked) [Propranolol, propranolol] | 5330 | 19.2 | Kd [1]: 548 µM; Ratio (HSA Kd / AGP Kd) [4]: 29; IC50 [5, 11]: > 1510 µM; IC50 [6, 12]: 50.1 µM; IC50 ([6]; average IC50, intraplate control, AGP screen, LOPAC1280 screen intraplate control): 48.7 µM
44.7 | 4.83 |  | OCc1ccc(-c2nn(Cc3ccccc3)c3ccccc23)o1 [YC-1] | 5.07 |  | IC50 [6, 13]: 5.62 µM
40 |  |  | OCCN(CCO)c1nc(N2CCCCC2)c2nc(N(CCO)CCO)nc(N3CCCCC3)c2n1 [Dipyridamole, dipyridamole] | 62.2 |  | Kd [1]: 35.6 µM; IC50 ([5]; read-out: HSA 1,536-well IC50): > 1510 µM
 |  |  | CN(C)CCCN1c2ccccc2Sc2ccc(Cl)cc21 [Chlorpromazine, chlorpromazine] |  | 7.68 | IC50 [6, 12]: 44.7 µM
7.94 |  | > 144 | CN(C)c1cc2c(Nc3ccc4c(cnn4Cc4ccccc4)c3)ncnc2cn1 [GW2974] | 4.65 |  | 
 | 23.9 | 22.4 | CCC(C)N(C)C(=O)c1cc2ccccc2c(-c2ccccc2Cl)n1 (centres unmarked) [PK 11195] |  |  | IC50 ([9]; probe dansyl sarcosine): > 151 µM
 | 2.51 |  | CC#C[C@]1(O)CC[C@H]2[C@@H]3CCC4=CC(=O)CCC4=C3[C@@H](c3ccc(N(C)C)cc3)C[C@@]21C [Mifepristone, mifepristone] |  |  | IC50 ([9]; probe dansyl sarcosine): > 151 µM; IC50 [6, 13]: 6.31 µM
 |  |  | COc1ccc2c(c1)c(CC(=O)O)c(C)n2C(=O)c1ccc(Cl)cc1 [Indomethacin, indomethacin] |  | 78.8 | 
 | 21.7 | 35.5 | O=C1N(c2ccccc2)c2ccccc2C1(Cc1ccncc1)Cc1ccncc1 [Linopirdine, linopirdine] |  |  | IC50 ([9]; probe dansyl sarcosine): > 151 µM
70.8 | 2.03 | 14.1 | COc1cc2nc(N3CCN(C(=O)OCc4ccccc4)C(C(=O)NC(C)(C)C)C3)nc(N)c2cc1OC [L-765,314] | 5.21 |  | 
56.2 | 10.5 | 20 | CCCC(=O)NCCc1c2n(c3ccc(OC)cc13)CCCc1ccccc1-2 [K 185] | 83.2 |  | 
7.94 | 832 |  | Nc1ccc2c3c(cccc13)C(=O)NC2=O [4-Amino-1,8-naphthalimide, 4-amino-1,8-naphthalimide] | 37 |  | IC50 [6, 13]: 11.2 µM
 |  |  | CN(C)CCCN1c2ccccc2CCc2ccccc21 [Imipramine, imipramine] | 5200 | 10.4 | Kd [1]: 149 µM; Ratio (HSA Kd / AGP Kd) [4]: 14; IC50 [5, 11]: > 1510 µM

SMILES | IC50 [7] [µM] | IC50 [8] [µM] | IC50 [6] [µM] | IC50 [2] [µM] | Kd at 2 min, 50 µM [3] [µM] | also measured
C=CCc1ccccc1OCC(O)CNC(C)C (centres unmarked) [Alprenolol, alprenolol] |  | 273 |  | 1700 | 33.8 | HSA Kd [1]: apparent inability to bind to the HSA protein coated beads; IC50 [10]: 276 µM; IC50 ([5]; read-out: HSA 1,536-well IC50): > 1510 µM
CN(C)CCC=C1c2ccccc2CCc2ccccc21 [Amitriptyline, amitriptyline] |  | 224 |  | 6750 | 1.89 | Kd [1]: 119 µM; IC50 [10]: 221 µM; Ratio (HSA Kd / AGP Kd) [4]: 63; IC50 ([5]; read-out: HSA 1,536-well IC50): > 1510 µM
Nc1nc(N)c2nc(CNc3ccc(C(=O)N[C@@H](CCC(=O)O)C(=O)O)cc3)cnc2n1 [Aminopterin, aminopterin] | 8.91 | 306 | 56.2 | 22 |  | 
CCCCC1C(=O)N(c2ccccc2)N(c2ccccc2)C1=O [Phenylbutazone, phenylbutazone] |  | > 1000 |  |  | 247 | IC50 [10]: 1050 µM
COc1ccc(C(CN(C)C)C2(O)CCCCC2)cc1 (centres unmarked) [Venlafaxine, venlafaxine] |  | > 1000 | > 144 | > 1000 |  | IC50 [9]: > 151 µM
